Source: patent publication US20160025704A1, “METHODS FOR IDENTIFYING NEUROPROTECTIVE PKC ACTIVATORS” (priority 2013, published 2016)

Assays:
TA 1535 Cells = assay: AMES test, TA1535 cells; format: cell-based; settings: TA1535 Cells, plate count
Excerpt: The AMES test is a rapid screening of the mutagenic potential of chemical compounds. […] Between 50% and 70% of all known carcinogens test positive in the AMES test.

ECE = ECE activity in SH-SY5Y cells (fluorometric); format: cell-based; settings: compared to ethanol alone
Experimental: Aβ can be degraded in vivo by a number of enzymes, including insulin degrading enzyme (insulysin), neprilysin, and ECE (FIG. 12). Because PKC-ε overexpression has been reported to activate ECE (Choi et al., Proc. Natl. Acad. Sci. USA. 2006; 103: 8215-20), the effect of PKC activators on ECE was analyzed. Candidate PKC activators were added to either SH-SY5Y cells (Bryo—0.27 nM, DCP-LA—1 μM, and DHA-CP6 1 μM) or cultured neurons (DHA-CP6—1 μM, EPA-CP5— 1 μM, and AA-CP4— 1 μM), and grown on either 12- or 24-well plates. After various time periods, the cells were collected and ECE activity was measured fluorometrically. Results are shown below in FIG. 13. *, p<0.05; **, p<0.001.
PKCε overexpression has been reported to activate endothelin converting enzyme (ECE). The effect of PKC activators on ECE was measured here with Bryostatin, DCP-LA, and DHA-CP6. […] Protocol: Bryostatin (0.27 nM), DCP-LA (1 μM), DHACP6 (1 μM), EPA-CP5 (1 μM), AA-CP4 (1 μM), or ethanol alone were added to SH-SYSY cells growing on 12- or 24-well plates. After various periods of time, the cells were collected and ECE activity was measured fluorometrically as showing in FIG. 34 below (* p<0.05, ** p<0.001).

PKC-ε = biological target: T1, PKC-ε (Mus musculus, UniProt P16054); assay: PKC-ε activation and translocation by bryostatin in mouse brain (Western blot); format: in vivo
T1 construct: from tissue; host or cells: brain of C57BL/6 mice
T1 sequence (P16054 1-737): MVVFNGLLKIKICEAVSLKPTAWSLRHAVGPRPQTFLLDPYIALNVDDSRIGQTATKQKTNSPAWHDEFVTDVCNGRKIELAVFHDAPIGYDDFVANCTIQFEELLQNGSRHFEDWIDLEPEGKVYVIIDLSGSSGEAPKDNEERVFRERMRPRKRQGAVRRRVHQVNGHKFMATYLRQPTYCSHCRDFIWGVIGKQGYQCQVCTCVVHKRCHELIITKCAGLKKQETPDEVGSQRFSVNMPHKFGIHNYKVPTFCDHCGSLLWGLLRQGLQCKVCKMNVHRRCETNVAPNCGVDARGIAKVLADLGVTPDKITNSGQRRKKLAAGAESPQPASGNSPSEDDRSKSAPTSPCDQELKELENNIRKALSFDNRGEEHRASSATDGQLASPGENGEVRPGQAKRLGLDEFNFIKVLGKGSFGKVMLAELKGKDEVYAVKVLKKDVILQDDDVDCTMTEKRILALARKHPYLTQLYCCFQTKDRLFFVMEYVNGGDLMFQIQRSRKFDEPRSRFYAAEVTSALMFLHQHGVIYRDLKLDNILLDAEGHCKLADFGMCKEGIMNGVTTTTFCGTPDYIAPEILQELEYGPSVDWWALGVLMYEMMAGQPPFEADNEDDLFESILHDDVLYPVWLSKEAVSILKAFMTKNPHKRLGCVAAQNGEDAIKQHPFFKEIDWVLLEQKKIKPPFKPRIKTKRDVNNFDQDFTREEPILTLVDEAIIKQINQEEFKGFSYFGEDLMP
Experimental: Protocol: Male C57BL/6M mice (15-20 g, Charles River) were acclimatized for 7-8 days in a non-enriched environment, three mice per cage. Bryostatin (Tocris) was dissolved in DMSO, diluted into 0.9% saline, and injected into the tail vein at doses of 10 and 15 μg/m2. After a fixed period, the mice were anesthetized with CO2 and the brain was frozen on dry ice. Blood was mixed with 0.2 ml 1 mM EDTA in PBS, centrifuged at 100 g for 30 min, and plasma was frozen on dry ice. In some experiments, blood lymphocyte fractions were collected using Ficoll-Paque Plus reagent using the procedure recommended by the manufacturer. All animal procedures were approved by the institutional IACUC.
Activation and translocation of PKC-ε were measured by Western blotting after subcellular fractionation into cytosol and particulate fractions. Homogenates were centrifuged at 100,000×g for 20 min and cytosolic and particulate fractions were separated on 4-20% Tris-glycine SDS polyacrylamide gels, blotted onto nitrocellulose, and probed with isozyme specific antibodies. The blots were photographed in a GE ImageQuant at 16 bits/pixel and analyzed by vertical strip densitometry using Imal Unix software.
Bryostatin was injected into the tail vein of C57BL/6N mice at 10 and 15 μg/m2 (equivalent to 3.50 and 5.25 μg/kg), and brain PKC-ε concentration was measured using Western blots. Brain PKC-ε activation was biphasic, peaking at 0.5 h and slowly declined toward resting levels, even though bryostatin levels continued to increase. This is consistent with the short-lived activation of PKC established previously. […] The bryostatin concentration at 0.5 h was 0.029 nM.
The results of a dose dependence study of activation of PKCα and PKCε translocation by bryostatin, are shown below in FIG. 4 (measured 30 minutes after administration), and FIG. 5 (measured 120 minutes after administration). The effect of bryostatin on brain PKC translocation (an indicator of enzymatic activation) was also biphasic, with maximal effects observed at doses between 5 and 10 μg/m2.

PKC-α = biological target: T2, PKC-α (Mus musculus, UniProt P20444); assay: PKC-α translocation by bryostatin in mouse brain (Western blot); format: in vivo; settings: 30 and 120 minutes after administration
T2 construct: The effect of bryostatin on brain PKC translocation; from tissue; host or cells: brain of C57BL/6 mice

GSK-3β = assay: Phosphorylation of GSK-3β (Ser9) in hippocampus (Western Blot); format: in vivo, mice; settings: 20 μg/m2 i.v., 2 doses/wk for 13 wk
sAPP-α = sAPP-α secretion in an Alzheimer's disease cell line; format: cell-based, human; settings: AD cell line
Experimental: Protocol: An Alzheimer's disease cell line was incubated with bryostatin (0.1 nM), Benzolactam (0.1 nM or 1.0 μM), DMSO, pre-treated with staurosporin (100 nM) plus bryostatin (0.1 nM) for three hours. […] The graph units are relative to the vehicle, DMSO, alone (1).

Structure (SMILES)	Negative (TA 1535 Cells; 0.125 mM)	Positive (TA 1535 Cells; 0.125 mM)	Negative (TA 1535 Cells; 0.25 mM)	Positive (TA 1535 Cells; 0.25 mM)	Negative (TA 1535 Cells; 0.5 mM)	Positive (TA 1535 Cells; 0.5 mM)	Negative (TA 1535 Cells; 1 mM)	Positive (TA 1535 Cells; 1 mM)	ECE activity (ECE; 1 μM)	PKC-ε translocation in mouse brain (PKC-ε; 30 and 120 minutes after administration)	downregulation of brain PKC-ε (PKC-ε; tail vein 10 and 15 μg/m2, C57BL/6N mice)	time of peak brain PKC-ε activation (PKC-ε; tail vein 10 and 15 μg/m2, C57BL/6N mice, biphasic) [h]	PKC-α translocation in mouse brain (PKC-α)	ECE activity (ECE; 0.27 nM)	ECE activity (ECE; 0.27 nM, listed as Bryo)	phosphorylation of GSK-3β (Ser9) in the hippocampus of fragile X mice (GSK-3β)	sAPP-α secretion at lower concentration (sAPP-α; 0.01 nM, time course)	amount of sAPP-α in the medium (sAPP-α; 0.1 nM, 3 h incubation, relative to DMSO)	incubation time at which secretion is near maximal (sAPP-α; 0.1 nM, time course) [min]	potency in sAPP-α secretion compared with BL (sAPP-α; both at 0.1 nM)
CCCCCC1CC1CC1CC1CCCCCCCC(=O)O (centres unmarked) [DCPLA, 8-[2-(2-pentylcyclopropyl)methyl]-cyclopropaneoctanoic acid]	95	1	93	3	94	2	93	3	sustained increase in ECE activity											
CCC/C=C/C=C/C(=O)O[C@H]1/C(=C/C(=O)OC)C[C@H]2C[C@H]([C@@H](C)O)OC(=O)C[C@H](O)C[C@@H]3C[C@H](OC(C)=O)C(C)(C)[C@](O)(C[C@@H]4C/C(=C/C(=O)OC)C[C@H](/C=C/C(C)(C)[C@]1(O)O2)O4)O3 [Bryostatin, bryostatin-1]										translocation was only observed by PKC-ε	No downregulation below starting values was observed	0.5	translocation was only observed by PKC-ε	sustained increase in ECE activity	increase in ECE activity	increases phosphorylation of GSK-3β	much slower but had about the same effect on secretion after 120 min of incubation	dramatically enhanced the amount of sAPP-α in the medium	160	more potent than another PKC activator, BL
